Laboratory results reported in patent US10399932B2, “Inhibitors of indoleamine-2,3-dioxygenase for the treatment of cancer” (BRISTOL-MYERS SQUIBB COMPANY, priority 2015, dated 2019).

target: human IDO1 (Homo sapiens, UniProt P14902); experiment: Assessment of human IDO-1 inhibitory activity in Hela cells (Interferon-gamma activated, Ehrlich reagent, absorbance at 490 nm); assay type: cell-based; set-up: endogenous in cells; host or cells: HeLa cells stimulated with interferon-gamma; details: 18 hours
Method: Exemplary compounds were tested for inhibition of IDO activity.
HeLa cells were seeded at 20,000 cells per 30 µL per well with RPMI/phenol red free media containing 10% FBS in a 384-well tissue culture plate (black with clear bottoms). 50 nL of compound was added to cells and incubated at 37° C. for one hour. 20 μL of the recombinant human Interferon-gamma (R&D System, Cat. #285-IF, at final concentration of 10 ng/ml) or recombinant murine Interferon-gamma (PEPROTECH® Inc., Cat. #315-05, final concentration of 5 ng/ml) was added to activate IDO signaling. The cells were incubated for 18 hours in 37° C. incubator with 5% CO2.
Compound treatment was stopped by adding 5 μl trichloroacetic acid to a final concentration of 3%. Subsequently, the cell plate was further incubated at 50° C. for 30 minute. An equal volume supernatant (20 μL) and 2% (w/v) Ehrlich reagent (4-dimethylaminobenzaldehyde) in glacial acetic acid were mixed in a new clear bottom 384-well plate. This plate was incubated at room temperature for 30 minutes. Absorbance at 490 nm was measured on Envision plate reader.
Compound IC50 values were calculated using counts from unstimulated (no INF-gamma treatment) wells as 100% inhibition. INF-gamma treatment without compound treatment as 0% inhibition.

Chain of human IDO1 (P14902 whole entry): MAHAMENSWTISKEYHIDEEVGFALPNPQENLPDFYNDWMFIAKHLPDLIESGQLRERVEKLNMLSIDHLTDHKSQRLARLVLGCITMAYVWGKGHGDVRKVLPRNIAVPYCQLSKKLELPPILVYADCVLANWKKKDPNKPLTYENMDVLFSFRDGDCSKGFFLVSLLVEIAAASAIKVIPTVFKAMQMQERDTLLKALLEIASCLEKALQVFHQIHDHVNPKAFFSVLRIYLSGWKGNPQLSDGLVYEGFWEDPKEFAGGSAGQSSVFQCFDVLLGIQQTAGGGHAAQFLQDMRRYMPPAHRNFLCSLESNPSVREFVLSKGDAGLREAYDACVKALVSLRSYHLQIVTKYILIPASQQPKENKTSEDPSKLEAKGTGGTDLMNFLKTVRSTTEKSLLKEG

Row | IC50 [nM] | Molecule
1 | < 50 | (R)-3-(3-((4-cyano-3-methylphenyl)amino)-4-(ethyl(tetrahydro-2H-pyran-4-yl)amino)phenyl)-4-methoxybutanoic acid [Example 391]
2 | > 50 | CCOc1ncc(Nc2cc(C(CC)CC(=O)O)ccc2N2CCOCC2)cn1 (single isomer, unassigned) [Example 7 Enantiomer 1, 3-(3-((2-Ethoxypyrimidin-5-yl)amino)-4-morpholinophenyl)pentanoic acid]
3 | > 50 | CCN(c1ccc(C(C)CC(=O)O)cc1Nc1cnc(OC(C)C)nc1)C1CCOCC1 (single isomer, unassigned) [Example 635, 3-(4-(ethyl(tetrahydro-2H-pyran-4-yl)amino)-3-((2-isopropoxypyrimidin-5-yl)amino)phenyl)butanoic acid]
4 | > 50 | CCOc1ncc(Nc2cc(C(CC)CC(=O)O)ccc2N2CCNCC2)cn1 (single isomer, unassigned) [Example 673]
5 | > 50 | COCC(CC(=O)O)c1ccc(N2C[C@@H](C)O[C@@H](C)C2)c(Nc2ccc(C#N)cc2)c1 (single isomer, unassigned) [602 E2]
6 | > 50 | C[C@@H]1CN(c2ccc(C(CC(=O)O)C3CC3)cc2NC(=O)Nc2ccc(Cl)cc2F)C[C@H](C)O1 (single isomer, unassigned) [Example 253]
7 | < 5 | COCC(CC(=O)O)c1cc(F)c(N(CC(C)C)CC(C)C)c(Nc2ccc(Cl)cc2)c1 (single isomer, unassigned) [Example 921, 3-(3-((4-Chlorophenyl)amino)-4-(diisobutylamino)-5-fluorophenyl)-4-methoxybutanoic acid]
8 | < 5 | COCC(CC(=O)O)c1ccc(N(CC(F)F)C2CCOCC2)c(Nc2ccc(Cl)cc2)c1 (single isomer, unassigned) [Example 321 Enantiomer 2, 3-(3-((4-Chlorophenyl)amino)-4-((2,2-difluoroethyl)(tetrahydro-2H-pyran-4-yl)amino)phenyl)-4-methoxybutanoic acid]
9 | < 5 | CCN(c1ccc(C(CC(=O)O)C2CC2)cc1Nc1ccc(Cl)cc1)C1CCOCC1 (single isomer, unassigned) [Example 33 Enantiomer 2, 3-(3-((4-Chlorophenyl)amino)-4-(ethyl(tetrahydro-2H-pyran-4-yl)amino)phenyl)-3-cyclopropylpropanoic acid]
10 | > 50 | CCC1COCCN1c1ccc([C@@H](COC)CC(=O)O)cc1Nc1ccc(C#N)c(F)c1 (single isomer, unassigned) [Example 1296]
11 | > 50 | COCCN(c1ccc(C(COC)CC(=O)O)cc1NC(=O)Nc1ccc(Cl)cc1F)C1CCOCC1 (single isomer, unassigned) [Example 263, 3-(3-(3-(4-chloro-2-fluorophenyl)ureido)-4-((2-methoxyethyl)(tetrahydro-2H-pyran-4-yl)amino)phenyl)-4-methoxybutanoic acid]
12 | < 5 | CCC(CC(=O)O)c1ccc(N(CC)C2CCCOC2)c(Nc2ccc(C#N)cc2)c1 (single isomer, unassigned) [Example 67, 3-(3-((4-cyanophenyl)amino)-4-(ethyl (tetrahydro-2H-pyran-3-yl)amino)phenyl)pentanoic acid]

Second part, the molecule before the results:

Row | Molecule | IC50 [nM]
13 | CCOc1ncc(Nc2cc(C(COC)CC(=O)O)ccc2N2CCOC[C@H]2C(C)C)cn1 (single isomer, unassigned) [Example 938] | > 50
14 | COCC(CC(=O)O)c1ccc(N2CCOC(C)C2)c(Nc2ccc(C#N)cc2)c1 (single isomer, unassigned) [Example 1313] | > 50
15 | CCC(CC(=O)O)c1ccc(N2CC(O)(c3ccc(F)cc3)C2)c(Nc2ccc(C#N)cc2)c1 (single isomer, unassigned) [Example 1255, 3-(3-((4-cyanophenyl)amino)-4-(3-(4-fluorophenyl)-3-hydroxyazetidin-1-yl)phenyl)pentanoic acid] | < 50
16 | CCOc1ncc(Nc2cc(C(COC)CC(=O)O)ccc2N2CCOC[C@@H]2C(C)C)cn1 (single isomer, unassigned) [Example 935] | > 50
17 | CCOc1ncc(Nc2cc(C(CC(=O)O)C3CC3)ccc2N(CC)C2CCOCC2)cn1 (single isomer, unassigned) [Example 39, 3-cyclopropyl-3-(3-((2-ethoxypyrimidin-5-yl)amino)-4-(ethyl(tetrahydro-2H-pyran-4-yl)amino)phenyl)propanoic acid] | < 50
18 | CCCN(c1ccc(C(CC)CC(=O)O)cc1Nc1ccc(C#N)cc1)C1CCS(=O)(=O)CC1 (single isomer, unassigned) [Example 12 Enantiomer 2, 3-(3-((4-Cyanophenyl)amino)-4-((1,1-dioxidotetrahydro-2H-thiopyran-4-yl)(propyl)amino)phenyl)pentanoic acid] | < 5
19 | CCN(c1cc(F)c(C(COC)CC(=O)O)cc1Nc1ccc(Cl)cc1)C1CCOCC1 (stereo not drawn) [Example 845, 3-(5-((4-chlorophenyl)amino)-4-(ethyl(tetrahydro-2H-pyran-4-yl)amino)-2-fluorophenyl)-4-methoxybutanoic acid] | < 50
20 | COCC(CC(=O)O)c1ccc(N2CCC(c3ccccc3)CC2)c(Nc2ccc(C#N)cc2)c1 (single isomer, unassigned) [Example 1350 E2, 3-(3-((4-Cyanophenyl)amino)-4-(4-phenylpiperidin-1-yl)phenyl)-4-methoxybutanoic acid] | < 5
21 | (R)-3-(4-(ethyl(tetrahydro-2H-pyran-4-yl)amino)-3-((2-(tetrahydro-2H-pyran-4-yl)pyrimidin-5-yl)amino)phenyl)-4-methoxybutanoic acid [Example 403] | > 50
22 | CCOc1ncc(Nc2cc(C(CC)CC(=O)O)cc(F)c2N(CC)C2CCOCC2)cn1 (single isomer, unassigned) [Example 139, 3-(3-((2-ethoxypyrimidin-5-yl)amino)-4-(ethyl (tetrahydro-2H-pyran-4-yl)amino)-5-fluorophenyl)pentanoic acid] | < 5
23 | COCC(CC(=O)O)c1ccc(N2CCOC[C@@H]2C(C)C)c(NC(=O)Nc2ccc(C#N)cc2)c1 (single isomer, unassigned) [Example 936] | > 50
24 | CCN(c1ccc([C@H](COC)CC(=O)O)cc1Nc1ccc(Cl)cc1)C1CCOCC1 (single isomer, unassigned) [Example 413] | < 5
25 | CCC(CC(=O)O)c1ccc(N2CCC(C)CC2)c(Nc2cnc(OC)nc2)c1 (single isomer, unassigned) [Example 44, 3-(3-((2-methoxypyrimidin-5-yl)amino)-4-(4-methylpiperidin-1-yl)phenyl) pentanoic acid] | > 50
26 | CCCOc1ncc(Nc2cc(C(C)CC(=O)O)ccc2N(CC)C2CCOCC2)cn1 (single isomer, unassigned) [Example 634, 3-(4-(ethyl(tetrahydro-2H-pyran-4-yl)amino)-3-((2-propoxypyrimidin-5-yl)amino)phenyl)butanoic acid] | < 50
27 | CCC(CC(=O)O)c1ccc(N(CC)C2CCCOC2)c(Nc2ccc(C#N)cc2)c1 (single isomer, unassigned) [Example 64, 3-(3-((4-cyanophenyl)amino)-4-(ethyl (tetrahydro-2H-pyran-3-yl)amino)phenyl)pentanoic acid] | < 5
28 | CC(CC(=O)O)c1ccc(N(CC(C)(C)O)C2CCCCC2)c(Nc2ccc(Cl)cc2)c1 (single isomer, unassigned) [Example 48 Enantiomer 2, 3-(3-((4-Chlorophenyl)amino)-4-(cyclohexyl(2-hydroxy-2-methylpropyl)amino)phenyl)butanoic acid] | < 5
29 | CCCN(c1ccc([C@@H](COC)CC(=O)O)cc1Nc1cnc(OCC2CC2)nc1)C1CCOCC1 (single isomer, unassigned) [Example 543] | < 5
30 | (R)-3-(4-((1,1-dioxidotetrahydro-2H-thiopyran-4-yl)(ethyl)amino)-3-((2-methoxypyrimidin-5-yl)amino)phenyl)-4-isopropoxybutanoic acid [Example 332] | > 50
31 | (S)-3-(4-((1,1-dioxidotetrahydro-2H-thiopyran-4-yl)(ethyl)amino)-3-((2-methoxypyrimidin-5-yl)amino)phenyl)-4-isopropoxybutanoic acid [Example 327] | > 50
32 | COCC(CC(=O)O)c1ccc(NC2CCOCC2)c(Nc2ccc(C#N)cc2)c1 (single isomer, unassigned) [Example 928 E2, 3-(3-((4-Cyanophenyl)amino)-4-((tetrahydro-2H-pyran-4-yl)amino)phenyl)-4-methoxybutanoic acid] | > 50
33 | Cc1ccc(NC(=O)Nc2cc(C(C)CC(=O)O)ccc2N2C[C@@H](C)O[C@@H](C)C2)cc1 (single isomer, unassigned) [Example 753] | > 50
34 | CCN(c1ccc(C(COC)CC(=O)O)cc1NC(=O)Nc1ccc(C#N)cc1)C1CCOCC1 (single isomer, unassigned) [Example 422 E2] | > 50
35 | COCC(CC(=O)O)c1ccc(N2CCOC(C)(C)C2)c(Nc2ccc(C#N)cc2)c1 (single isomer, unassigned) [Example 1317] | > 50
36 | CCOc1ncc(Nc2cc(C(COC)CC(=O)O)ccc2N(C)C2CCOCC2)cn1 (single isomer, unassigned) [Example 885, 3-(3-((2-ethoxypyrimidin-5-yl)amino)-4-(methyl (tetrahydro-2H-pyran-4-yl)amino)phenyl)-4-methoxybutanoic acid] | > 50
